Ends that are not written are not given here.

Data set [1] relates to FIA-CIA (bCII- and hFib-immunized mice which develop RA-like arthritis). The conditions noted are these: for overview of the paws: soft tissue enhancement and lymphocyte infiltration (HE sections): right hind paws; for arthritis score: score 0-16 per mouse.
Data set [2] concerns anti-bCII or anti-hFib antibody titers. Put plainly: Measurement of mouse antibodies by ELISA in sera of treated FIA-CIA mice. It is filed as in vivo. The conditions noted are these: sera taken on days 35 and 84, 1 mg/kg i.v. on days 14, 35 and 56. As for the experimental part: Serum was collected on days 0, 14, 35 and 56 of the experiment via bleeding of the tail vein. Treatment with peptides 90091, 90578 (at a concentration of 1 mg/kg body weight) or 0.9% NaCl was applied intravenously on day 14, 35 and 56. Mice were randomly distributed to the three treatment groups. Treatment compounds were numbered 1, 2 and 3. To minimize confounders, each of the three mice per cage received a different treatment. All clinical and histological investigators were blinded to the treatment until data analysis was finished. For comparability between the therapy groups, all mice, including the CFA control mice, received a daily dose of 1 mg/kg Metacam® (meloxicam) from day 14 after the first immunization on until the end of the experiment. Mice were killed on day 84 of the experiments via intracardiac punction and blood withdrawal under ketamine/xylazine anaesthesia.
ELISA plates were coated with 100 μl per well of either 1 μg/ml bCII (Chondrex, Inc.) or 1 μg/ml hFib (Millipore/Calbiochem) or 1 μg/ml citrullinated hFib (Cayman) or CCP peptide at a concentration of 10 μg/ml in coating solution for 1 h. The CCP peptide we used for the selected CCP assay had the following sequence: HQCHQEST(cit)GRSRGRCGRSGS (SEQ ID NO: 2), with disulphide bonds spanning C3-C16.
All subsequent procedures were performed at room temperature (RT) and incubations were done on a microtiter plate shaker. […] After washing, the POD was detected by incubation with 100 μl/well of TMB substrate (Thermo Scientific, #34029) until a maximal optical density (OD) of about 1 to 2 was reached. Finally, the colorimetric reaction was stopped with 100 μl/well stopping solution (1M H2SO4) and the OD determined at a wavelength of 450 nm with a reference wavelength of 595 nm with the Tecan Infinite F 200 plate reader.
For assessment of antibodies, various antigens were coated on ELISA plates, and the sera of the mice were added. Binding of antibodies to the antigens was then measured by adding anti-mouse antibodies labelled with POD.

Where [3] appears, read: 1 mg/kg i.v. on days 14, 35 and 56.
[4] abbreviates: 1 mg/kg i.v. on days 14, 35 and 56, vs NaCl.

Consider `Cc1cnc(NC(=O)C2=C(O)c3ccccc3S(=O)(=O)N2C)s1` [meloxicam, reference compound], for which, in data set [1] (mouse, in vivo, 1 mg/kg), the adverse effects result is “did not develop any adverse effects”.
Regarding “peptide 90091: non-fructosylated derivative of peptide 90578, amino sequence GEPGIAGFKGEQGPK (SEQ ID No: 1) (CARBOHYD (9)..(9); listed as Bos taurus) [reference compound]”, the “antibody levels (anti-bCII, anti-hFib titers)” value (“antibody levels” below) in data set [2] is recorded as “not Affected by Treatment”. For the same molecule, in data set [1] (setting [3]), the “ankle and tarsal joint histology (lymphocyte infiltrates, cartilage, pannus)” value was “less lymphocyte infiltrates, but also pannus formation and cartilage erosion”; the “overview of the paws: soft tissue enhancement and lymphocyte infiltration (HE sections)” value is given as “severely enhanced”. The “survival probability (Kaplan-Meier, log-rank)” value in data set [1] (1 mg/kg i.v. on days 14, 35 and 56, mice killed when arthritis too severe) is reported as “did not reveal a significant difference between groups”. In addition, in data set [1] (setting [4]), the arthritis score entry is reported as “seemed to enhance arthritis, but not significantly”.
For “peptide 90578: GEPGIAGFKGEQGPK (SEQ ID NO: 1, bCII 256-270) with a D-fructosyl residue on the lysine at position 264 (position 9) (GEPGIAGFK(D‑fructosyl)GEQGPK; listed as Bos taurus)”, the “antibody levels” value in data set [2] (1 mg/kg) is given as “this effect could not be found in the antibody levels”. Moreover, in data set [2] (listed as Peptide 905778, 1 mg/kg), the “antibody levels” value was “not Affected by Treatment”. In data set [1] (setting [3]), the “ankle and tarsal joint histology (lymphocyte infiltrates, cartilage, pannus)” value is “the cartilage was intact and there were only a few lymphocyte infiltrates in the subchondral bone”; the “overview of the paws: soft tissue enhancement and lymphocyte infiltration (HE sections)” value was “less tissue enhancement and lymphocyte infiltration”. Moreover, in data set [1] (1 mg/kg i.v. on days 14, 35 and 56, caliper, vs NaCl), the “paw swelling of tarsal joints” value is “significantly lower swelling on days 49 and 56”. In data set [1] (1 mg/kg i.v. on days 14, 35 and 56, right hind paw HE sections at day 84, score max 15, N=8), the average histology score worked out at 3.9. Further, the arthritis score entry in data set [1] (setting [4]) was “tended to be less severe”.
